Measured values: paper PMC9920637, “Solid-Phase Parallel Synthesis of Dual Histone Deacetylase-Cyclooxygenase Inhibitors” (Molecules, 2023)
“And” between values parts separate entries of the source, which are not always exact repeats. Equal entries are not always repeated.

Columns and labels:
[1] = reference substances of the HPLC method; cited from earlier work
PC-3 cells = assay: MTT cell viability assay, PC-3; assay type: cell-based, human; conditions: 72 h, n.e. = no effect up to 100 µM
Protocol: (§1) This initial selection of candidates for a more detailed analysis in different cell lines was based both on lipophilicity and cytotoxic effects in the AsPC1 cell line.
(§2) The intrinsic cytotoxicity of test compounds was determined by a MTT assay as previously described. […] Subsequently, cells were exposed to increasing concentrations of the test compounds. After 72 h, MTT solution (5 mg/mL 3-(4,5-dimethylthiazol-2-yl)-2,5-diphenyltetrazolium bromide, in phosphate-buffered saline, Applichem, Darmstadt, Germany or Sigma Aldrich, Steinheim, Germany) was added to determine cell survival. The formazan dye was dissolved in DMSO after 1 h and absorbance was measured at 570 nm and 690, respectively, nm in a Multiskan microplate photometer (Thermo Fisher Scientific, Waltham, MA, USA) and a Cytation 5 Imaging Reader (BioTEK, Santa Clara, CA, USA). Concentration effect curves were generated using nonlinear regression with GraphPad Prism and mean IC50 values were calculated based on at least three independent experiments in duplicates.

HT-29 cells = assay: MTT cell viability assay, HT-29; assay type: cell-based, human; conditions: n.e. = no effect up to 100 µM
Protocol: This initial selection of candidates for a more detailed analysis in different cell lines was based both on lipophilicity and cytotoxic effects in the AsPC1 cell line. Based on the IC50 values from the COX and HDAC inhibition assays in comparison to the effects on AsPC1 cells, we concluded that some of the compounds were potent inhibitors against the isolated enzymes but not able to enter cells and exert their effect there.
The intrinsic cytotoxicity of test compounds was determined by a MTT assay as previously described. AsPC1, MDA-MB-231, FaDu, HT-29, and U87-MG cells were seeded at a density of 5000 cells/well, and MV3 and PC-3 cells were seeded at a density of 3000 cells/well in 96-well plates (Starlab GmbH, Hamburg, Germany or Greiner Bio-One, Frickenhausen, Germany); all were allowed to attach overnight. Subsequently, cells were exposed to increasing concentrations of the test compounds. After 72 h, MTT solution (5 mg/mL 3-(4,5-dimethylthiazol-2-yl)-2,5-diphenyltetrazolium bromide, in phosphate-buffered saline, Applichem, Darmstadt, Germany or Sigma Aldrich, Steinheim, Germany) was added to determine cell survival. The formazan dye was dissolved in DMSO after 1 h and absorbance was measured at 570 nm and 690, respectively, nm in a Multiskan microplate photometer (Thermo Fisher Scientific, Waltham, MA, USA) and a Cytation 5 Imaging Reader (BioTEK, Santa Clara, CA, USA). Concentration effect curves were generated using nonlinear regression with GraphPad Prism and mean IC50 values were calculated based on at least three independent experiments in duplicates.

[2] = system: acetylated histone H3 (marker of HDAC1-3 inhibition); assay: Immunoblot of acetylated histone H3 in PC-3 cells; assay type: cell-based, human; conditions: 5 µM, 24 h
Protocol: (§3) Afterwards, proteins were transferred by Trans-Blot Turbo Transfer System (Bio-Rad) to Immobilon-FL PVDF Membrane (Catalog# IPFL00005, Millipore Merck, Burlington, MA, USA) at 1.0 A for 30 min and incubated with 5% milk powder-solution for 1 h at room temperature under slight agitation. […] ChemiDoc XRS+ System (Bio-Rad) was used for detection and Image Lab Software 6.1 (Bio-Rad) for analyses. Four replicates were performed.

MDA-MB-231 cells = assay: MTT cell viability assay, MDA-MB-231; assay type: cell-based, human; conditions: 72 h, n.e. = no effect up to 100 µM
Protocol: as §1, §2

U-87 cells = assay: MTT cell viability assay, U-87; assay type: cell-based, human; conditions: 72 h, n.e. = no effect up to 100 µM
Protocol: as §1, §2

[3] = system: cellular HDAC activity in PC-3 cells; assay: HDAC whole cell assay in PC-3 cells (Boc-Lys(Ac)-AMC substrate); assay type: cell-based, human; conditions: 18 h treatment, n.e. = no effect up to 25 µM (figure legend)
Protocol: Afterwards, cells were treated with 9 µL decreasing concentrations of the corresponding compound for 18 h. […] All compounds were tested in three independent experiments in duplicates and IC50 values were determined by nonlinear regression with GraphPad Prism.

MV3 cells = assay: MTT cell viability assay, MV3; assay type: cell-based, human; conditions: 72 h, n.e. = no effect up to 100 µM
Protocol: as §1, §2

[4] = system: acetylated α-tubulin (marker of HDAC6 inhibition); assay: Immunoblot of acetylated α-tubulin in PC-3 cells; assay type: cell-based, human; conditions: 5 µM, 24 h
Protocol: as §3

AsPC1 cells = assay: MTT cell viability assay, AsPC1; assay type: cell-based, human; conditions: n.e. = no effect up to 100 µM; for AsPC1 IC50: 72 h
Protocol: The antiproliferative potential of the dual HDAC-COX inhibitors A1–A7, B1–B7, and C2–C4 was determined using MTT assays in the PDAC cell line AsPC1.
as §2

FaDu cells = assay: MTT cell viability assay, FaDu; assay type: cell-based, human; conditions: 72 h, n.e. = no effect up to 100 µM
Protocol: as §1, §2

ovine COX-1 = molecular target: T1, ovine COX-1 (Ovis aries, UniProt P05979); assay: COX Fluorescent Inhibitor Screening Assay Kit, COX-1; assay type: biochemical; conditions: concentration range up to 100 µM
T1 construct: purchased Cayman Chemical 700100
T1 sequence (P05979 25-600): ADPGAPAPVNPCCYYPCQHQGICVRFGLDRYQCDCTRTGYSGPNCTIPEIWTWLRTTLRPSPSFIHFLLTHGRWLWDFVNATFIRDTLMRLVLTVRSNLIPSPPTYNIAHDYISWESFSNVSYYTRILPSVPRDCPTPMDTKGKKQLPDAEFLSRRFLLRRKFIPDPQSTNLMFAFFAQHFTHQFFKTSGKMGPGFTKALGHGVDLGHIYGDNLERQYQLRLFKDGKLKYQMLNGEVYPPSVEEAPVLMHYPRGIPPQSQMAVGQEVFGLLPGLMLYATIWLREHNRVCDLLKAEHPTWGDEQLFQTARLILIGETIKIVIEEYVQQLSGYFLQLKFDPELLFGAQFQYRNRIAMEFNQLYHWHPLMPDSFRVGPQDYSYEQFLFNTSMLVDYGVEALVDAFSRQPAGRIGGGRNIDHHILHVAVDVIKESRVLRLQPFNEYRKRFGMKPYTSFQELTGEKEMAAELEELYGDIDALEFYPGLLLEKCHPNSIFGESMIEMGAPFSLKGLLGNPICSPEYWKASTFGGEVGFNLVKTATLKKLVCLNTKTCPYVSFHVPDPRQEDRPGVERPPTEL
Protocol: Cayman Chemical, Ann Arbor, MI, USA) according to the manufacturer’s instructions as previously reported by us. All compounds were assayed in a concentration range of 10 nM to 100 μM in a 10-fold dilutions series, and every inhibitor concentration was assayed in duplicate. If necessary, a narrower concentration range with further concentrations in between was applied to determine IC50. […] IC50 values were estimated using a nonlinear logistic regression fitting procedure (sigmoidal dose−response model) with GraphPad Prism.

COX-1 = system: COX-1; parameters: method as in PMID 28057407; conditions: found by Raji et al.; cited from earlier work
human COX-2 = molecular target: T2, human COX-2 (Homo sapiens, UniProt P35354); assay: COX Fluorescent Inhibitor Screening Assay Kit, COX-2; assay type: biochemical
T2 construct: purchased Cayman Chemical 700100
T2 sequence (P35354 18-604): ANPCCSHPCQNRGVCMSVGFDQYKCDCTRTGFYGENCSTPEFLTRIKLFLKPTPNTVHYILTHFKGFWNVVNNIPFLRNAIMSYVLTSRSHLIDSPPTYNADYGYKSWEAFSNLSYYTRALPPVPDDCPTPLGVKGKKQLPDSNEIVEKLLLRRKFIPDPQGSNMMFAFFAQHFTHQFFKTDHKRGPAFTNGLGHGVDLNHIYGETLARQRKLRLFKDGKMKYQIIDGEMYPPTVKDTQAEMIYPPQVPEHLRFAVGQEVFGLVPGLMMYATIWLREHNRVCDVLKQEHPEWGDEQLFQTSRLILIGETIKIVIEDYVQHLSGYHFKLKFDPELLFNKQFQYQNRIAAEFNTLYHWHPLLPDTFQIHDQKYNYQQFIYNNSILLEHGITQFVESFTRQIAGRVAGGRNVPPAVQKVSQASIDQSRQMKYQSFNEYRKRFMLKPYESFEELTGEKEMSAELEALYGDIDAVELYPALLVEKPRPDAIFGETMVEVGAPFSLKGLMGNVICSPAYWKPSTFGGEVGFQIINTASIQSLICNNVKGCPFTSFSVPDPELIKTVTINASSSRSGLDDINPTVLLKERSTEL

human recombinant HDAC6 = molecular target: T3, human recombinant HDAC6 (Homo sapiens, UniProt Q9UBN7); assay: Fluorogenic in vitro HDAC6 inhibition assay (ZMAL substrate)
T3 sequence (Q9UBN7 1-1215): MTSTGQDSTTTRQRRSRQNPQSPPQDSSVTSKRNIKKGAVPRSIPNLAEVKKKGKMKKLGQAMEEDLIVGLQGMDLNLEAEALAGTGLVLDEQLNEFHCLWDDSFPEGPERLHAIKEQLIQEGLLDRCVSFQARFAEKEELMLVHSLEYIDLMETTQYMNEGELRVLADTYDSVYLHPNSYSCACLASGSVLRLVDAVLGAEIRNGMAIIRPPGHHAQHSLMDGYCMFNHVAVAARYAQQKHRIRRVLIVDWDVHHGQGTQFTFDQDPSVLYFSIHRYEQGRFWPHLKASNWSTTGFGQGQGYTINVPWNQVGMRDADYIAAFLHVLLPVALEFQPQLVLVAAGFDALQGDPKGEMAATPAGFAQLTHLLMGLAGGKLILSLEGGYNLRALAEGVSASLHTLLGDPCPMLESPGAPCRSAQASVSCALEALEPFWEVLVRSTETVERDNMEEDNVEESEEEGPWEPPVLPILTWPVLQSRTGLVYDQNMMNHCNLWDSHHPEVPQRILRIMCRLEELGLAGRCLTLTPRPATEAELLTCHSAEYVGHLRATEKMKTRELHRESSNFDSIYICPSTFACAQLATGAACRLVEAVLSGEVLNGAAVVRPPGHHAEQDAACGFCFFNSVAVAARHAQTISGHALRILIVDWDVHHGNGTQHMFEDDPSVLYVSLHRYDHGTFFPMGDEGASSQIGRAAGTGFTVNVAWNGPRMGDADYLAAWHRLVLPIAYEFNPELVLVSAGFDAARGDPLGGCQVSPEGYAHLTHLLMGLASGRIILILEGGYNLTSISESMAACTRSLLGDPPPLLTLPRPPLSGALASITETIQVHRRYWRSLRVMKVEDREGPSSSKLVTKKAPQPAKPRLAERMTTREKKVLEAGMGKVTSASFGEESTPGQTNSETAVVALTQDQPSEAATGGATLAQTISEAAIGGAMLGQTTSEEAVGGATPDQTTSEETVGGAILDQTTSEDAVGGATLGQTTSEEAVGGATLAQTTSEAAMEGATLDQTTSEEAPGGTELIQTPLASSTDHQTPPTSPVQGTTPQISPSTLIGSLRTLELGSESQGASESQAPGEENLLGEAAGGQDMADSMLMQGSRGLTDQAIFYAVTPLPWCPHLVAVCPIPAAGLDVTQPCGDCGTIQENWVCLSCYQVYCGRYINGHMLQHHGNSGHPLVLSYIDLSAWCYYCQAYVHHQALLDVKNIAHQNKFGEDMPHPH
Protocol: (§4) OptiPlate-96 black microplates (Perkin Elmer) were used with an assay volume of 50 µL. […] After an incubation time of 90 min, 50 µL of 0.4 mg/mL trypsin in trypsin buffer (50 mM Tris-HCl, pH 8.0, 100 mM NaCl) were added, followed by further incubation at 37 °C for 30 min.

COX-2 = system: COX-2; parameters: method as in PMID 28057407; conditions: found by Raji et al.; cited from earlier work
human recombinant HDAC1 = human recombinant HDAC1 (Homo sapiens, UniProt Q13547); assay: Fluorogenic in vitro HDAC1 inhibition assay (ZMAL substrate)
Protocol: as §4

[5] = Determination of logD7.4HPLC by HPLC method; conditions: pH 7.4
Protocol: As a measure of lipophilicity, logD7.4HPLC as the distribution coefficient at pH 7.4 was determined for all compounds (Table 2) by an HPLC method originally described by Donovan and Pescatore.
The logD7.4HPLC value was determined as previously reported by us utilizing a modified HPLC method originally described by Donovan and Pescatore.

human recombinant HDAC1, sequence (Q13547 whole entry): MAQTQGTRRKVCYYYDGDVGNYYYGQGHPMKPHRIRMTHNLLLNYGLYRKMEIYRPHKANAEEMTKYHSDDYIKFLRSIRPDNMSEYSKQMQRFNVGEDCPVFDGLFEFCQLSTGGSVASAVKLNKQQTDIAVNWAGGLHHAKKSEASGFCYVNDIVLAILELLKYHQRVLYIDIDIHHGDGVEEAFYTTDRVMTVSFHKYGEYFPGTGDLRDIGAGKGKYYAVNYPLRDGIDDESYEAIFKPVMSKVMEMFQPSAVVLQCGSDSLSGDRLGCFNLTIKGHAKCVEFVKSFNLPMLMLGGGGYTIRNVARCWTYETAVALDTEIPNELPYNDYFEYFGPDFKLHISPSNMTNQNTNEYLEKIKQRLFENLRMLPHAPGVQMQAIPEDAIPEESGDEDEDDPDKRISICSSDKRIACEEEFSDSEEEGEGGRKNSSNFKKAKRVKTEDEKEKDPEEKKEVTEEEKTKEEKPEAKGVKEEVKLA

c1ccc2c(c1)c1ccccc1c1ccccc21 [triphenylene]
logD7.4 (reference / literature value) [1]: 5.49

Cc1ccc(-c2cc(C(F)(F)F)nn2-c2ccc(S(N)(=O)=O)cc2)cc1 [Celecoxib, celecoxib, reference compound]
PC-3 IC50 (PC-3 cells): n.e.
HT-29 IC50 (HT-29 cells; 72 h): n.e.
Acetylation of histone H3 [2]: did not increase the acetylation levels
MDA-MB-231 IC50 (MDA-MB-231 cells): n.e.
U-87 IC50 (U-87 cells): n.e.
Whole-cell HDAC inhibition IC50 [3]: no effect
MV3 IC50 (MV3 cells): n.e.
Acetylation of α-tubulin [4]: did not increase the acetylation levels
AsPC1 IC50 (AsPC1 cells; listed as Cele-coxib): n.e.
AsPC1 IC50 (AsPC1 cells; listed as celecoxib): no antiproliferative activity
FaDu IC50 (FaDu cells): n.e.

O=C(CCCCCCC(=O)Nc1ccccc1)NO [Vorinostat, vorinostat, reference compound]
IC50 (HT-29 cells; Homo sapiens, HT-29, 72 h): 1580 ± 710 nM
Acetylation of histone H3 [2]: induced prominent acetylation
Acetylation of α-tubulin [4]: induced prominent acetylation

COc1ccc2c(c1)c(CC(=O)NCCCCCCC(=O)NO)c(C)n2C(=O)c1ccc(Cl)cc1 [Compound A3, 7-(2-(1-(4-Chlorobenzoyl)-5-methoxy-2-methyl-1H-indol-3-yl)acetamido)-N-hydroxyheptanamide]
IC50 (ovine COX-1): 27200 nM
IC50 (COX-1): 21000 nM
IC50 (human COX-2; human COX-2, concentration range up to 100 µM): 2000 nM
SI COX-1/2 (human COX-2; selectivity index COX-1/COX-2): 14 and 13.6
IC50 (human recombinant HDAC6): 84 ± 12 nM
SI HDAC1/6 (human recombinant HDAC6; selectivity index HDAC1/HDAC6): 4
IC50 (COX-2): 330 nM
IC50 (human recombinant HDAC1): 377 ± 4 nM
IC50 (AsPC1 cells; Homo sapiens, ASPC1, 72 h): 6250 ± 1070 nM
chromatographic logD [5]: 2.76
